This passage reports inhibition of cytokine-induced cell death results from PubChem BioAssay AID652171 (Broad Institute, 2013).

This assay has as its system INS-1E cytokine-induced apoptosis, ATP luminescence, 48 h. The assay can be described thus: inhibition of INS-1E apoptosis – cell-based, ATP luminescence, dry powder, mechanism study for beta-cell protection project, late-stage follow-up (AID 652171).

As for `C[C@@H]1CN([C@@H](C)CO)C(=O)c2cccc(NC(=O)Nc3cccc4ccccc34)c2O[C@H]1CN(C)S(=O)(=O)c1ccc2c(c1)OCCO2`, the inhibition of cytokine-induced cell death (at 10 µM (top of the series)) was 90%. With `C[C@@H]1CN([C@@H](C)COC(=O)NCCOCCOCCN)C(=O)c2cccc(NC(=O)Nc3cccc4ccccc34)c2O[C@H]1CN(C)S(=O)(=O)c1ccc2c(c1)OCCO2`, the inhibition of cytokine-induced cell death (at 20 µM (top of the series)) is 102%.
